Measurements reported in ChEMBL document CHEMBL1143569, “Predicting human serum albumin affinity of interleukin-8 (CXCL8) inhibitors by 3D-QSPR approach” (J Med Chem, 2005).

target: albumin (Homo sapiens, UniProt P02768); assay: Percentage plasma protein binding towards human serum albumin; assay type: cell-free; details: read-out: PB (converted)
Sequence (P02768 whole entry): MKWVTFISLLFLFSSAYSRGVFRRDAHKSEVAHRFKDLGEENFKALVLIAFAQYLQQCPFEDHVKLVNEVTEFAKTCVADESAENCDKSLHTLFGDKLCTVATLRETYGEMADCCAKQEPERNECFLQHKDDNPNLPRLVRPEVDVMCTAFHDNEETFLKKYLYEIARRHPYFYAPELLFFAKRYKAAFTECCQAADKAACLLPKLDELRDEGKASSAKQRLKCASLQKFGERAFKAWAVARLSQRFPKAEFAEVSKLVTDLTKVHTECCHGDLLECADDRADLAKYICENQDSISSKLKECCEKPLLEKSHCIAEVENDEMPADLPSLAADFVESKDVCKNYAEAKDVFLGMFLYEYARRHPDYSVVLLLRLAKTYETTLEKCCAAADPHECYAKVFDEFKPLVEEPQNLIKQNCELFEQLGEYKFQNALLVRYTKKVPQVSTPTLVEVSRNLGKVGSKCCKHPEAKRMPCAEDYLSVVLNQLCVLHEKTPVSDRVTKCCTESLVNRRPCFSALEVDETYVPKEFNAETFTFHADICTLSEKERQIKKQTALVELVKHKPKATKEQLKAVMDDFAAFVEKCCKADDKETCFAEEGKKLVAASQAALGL

For `CS(=O)(=O)Nc1ccc([N+](=O)[O-])cc1Oc1ccccc1` [NIMESULIDE], which fraction unbound is on record?
The fraction unbound was 0.1.

`C[C@@H](C(=O)NS(C)(=O)=O)c1ccc(OS(=O)(=O)C(F)(F)F)cc1` [LADARIXIN] was tested. Which fraction unbound did it give?
Its fraction unbound is 0.002.

Which fraction unbound does the source give for `CC(C)Cc1ccc([C@@H](C)C(=O)NCCOCCO)cc1` here?
Its fraction unbound is 0.169.

For `C[C@@H](C(=O)NCCN1CCCC1)c1ccc(OS(=O)(=O)C(F)(F)F)cc1`, which fraction unbound is on record?
The fraction unbound was 0.3.

With `O=C(c1ccccc1)c1ccc2n1CCC2C(=O)O` (stereo unspecified) [KETOROLAC] as the compound, how does the fraction unbound read?
The fraction unbound was 0.008.

Which fraction unbound does the source give for `COc1ccc2c(c1)CN(c1ccc(C(C)C(=O)O)cc1)C2=O` (stereo unspecified) here?
Its fraction unbound is 0.02.

Which fraction unbound does the source give for `NS(=O)(=O)c1cc2c(cc1Cl)NCNS2(=O)=O` [HYDROCHLOROTHIAZIDE] here?
Its fraction unbound is 0.42.

How did the fraction unbound turn out when `CC(C(=O)O)c1ccc(-c2ccccc2)c(F)c1` (stereo unspecified) [FLURBIPROFEN] was run?
Its fraction unbound is 0.005.

`CC(C)Cc1ccc([C@@H](C)C(=O)N[C@H](C)C(=O)O)cc1` was tested. Which fraction unbound did it give?
Its fraction unbound is 0.04.

With `Cc1ccc(C(=O)c2ccc(CC(=O)O)n2C)cc1` [TOLMETIN] as the compound, how does the fraction unbound read?
Its fraction unbound is 0.004.

How did the fraction unbound turn out when `Cc1ccc(S(=O)(=O)NC(=O)NN2CCCCCC2)cc1` [TOLAZAMIDE] was run?
Its fraction unbound is 0.03.

`C[C@@H](C(N)=O)c1ccc(OS(=O)(=O)C(F)(F)F)cc1` was tested. Which fraction unbound did it give?
The fraction unbound was 0.08.

For `C[C@@H](C(=O)NCCCN1CCCC1)c1ccc(OS(=O)(=O)C(F)(F)F)cc1`, which fraction unbound is on record?
Its fraction unbound is 0.38.

`CC(Cc1ccc([C@@H](C)C(=O)NS(C)(=O)=O)cc1)C(=O)O` (stereo partly specified) was tested. Which fraction unbound did it give?
The fraction unbound was 0.298.

How did the fraction unbound turn out when `Cc1cc(CC(=O)O)n(C)c1C(=O)c1ccc(Cl)cc1` [ZOMEPIRAC] was run?
The fraction unbound was 0.015.

For `CC(C)Cc1ccc([C@@H](C)C(=O)NS(C)(=O)=O)cc1` [REPARIXIN], which fraction unbound is on record?
The fraction unbound was 0.001.

Which fraction unbound does the source give for `CC1=C(CC(=O)O)c2cc(F)ccc2/C1=C\c1ccc([S+](C)[O-])cc1` (stereo unspecified) here?
Its fraction unbound is 0.06.

Which fraction unbound does the source give for `CC(C)Cc1ccc([C@@H](C)C(=O)NCCCN(C)C)cc1` here?
The fraction unbound was 0.249.

For `CC(C)NCC(O)c1ccc(NS(C)(=O)=O)cc1` (stereo unspecified) [SOTALOL], which fraction unbound is on record?
Its fraction unbound is 0.825.

For `CCCNC(=O)NS(=O)(=O)c1ccc(Cl)cc1` [CHLORPROPAMIDE], which fraction unbound is on record?
Its fraction unbound is 0.04.

Which fraction unbound does the source give for `CC(C)Cc1ccc([C@@H](C)C(=O)NCCCN2CCCCC2)cc1` here?
The fraction unbound was 0.149.
